Laboratory results reported in patent publication US20250262201A1, “COMPOUNDS AND METHODS USEFUL FOR STABILIZING PHENYLALANINE HYDROXYLASE MUTATIONS” (Agios Pharmaceuticals, Inc., priority 2022, published 2025).

Biological target: T1, human PAH with the R408W mutation (Homo sapiens, UniProt P00439, R408W)
T1 construct: expressed in transfected cells
T1 sequence (P00439 1-452 R408W): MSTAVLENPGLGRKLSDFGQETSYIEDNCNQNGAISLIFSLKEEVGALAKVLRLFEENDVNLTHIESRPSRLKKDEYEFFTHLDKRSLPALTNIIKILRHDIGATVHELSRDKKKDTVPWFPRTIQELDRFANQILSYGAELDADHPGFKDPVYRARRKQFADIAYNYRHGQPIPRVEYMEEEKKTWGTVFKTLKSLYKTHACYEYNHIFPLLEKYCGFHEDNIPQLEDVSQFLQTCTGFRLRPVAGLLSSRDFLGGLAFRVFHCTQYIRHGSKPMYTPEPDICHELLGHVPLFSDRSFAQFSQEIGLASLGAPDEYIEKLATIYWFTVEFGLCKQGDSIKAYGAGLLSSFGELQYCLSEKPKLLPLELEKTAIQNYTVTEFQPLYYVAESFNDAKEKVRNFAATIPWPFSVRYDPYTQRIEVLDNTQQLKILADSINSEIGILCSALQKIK
Assay: Cell Based Phenylalanine Flux Assay
Conditions: A375 cells expressing human R408W PAH; 24 hrs compound incubation; 13C-Tyrosine by LC-MS; average where tested multiple times; read-out: AC50

Row | Compound | AC50 [nM]
1 | C[C@H]1CN(C(=O)c2nnc(C(C)(C)F)o2)[C@H](c2cc3ccccc3cn2)c2nc[nH]c21 [Example 499, (5-(2-fluoropropan-2-yl)-1,3,4-oxadiazol-2-yl)((4R,7S)-4-(isoquinolin-3-yl)-7-methyl-6,7-dihydro-1H-imidazo[4,5-c]pyridin-5(4H)-yl)methanone] | 500 to 1000
2 | C[C@@H]1CN(C(=O)c2nnc(C(C)(C)F)o2)[C@H](c2cc3ccccc3cn2)c2nc[nH]c21 [Example 501, (5-(2-fluoropropan-2-yl)-1,3,4-oxadiazol-2-yl)((4R,7R)-4-(isoquinolin-3-yl)-7-methyl-6,7-dihydro-1H-imidazo[4,5-c]pyridin-5(4H)-yl)methanone] | < 500
3 | C[C@H]1CN(C(=O)c2cnco2)[C@H](c2cc3ccccc3cn2)c2nc[nH]c21 [Example 503, ((4R,7S)-4-(isoquinolin-3-yl)-7-methyl-6,7-dihydro-1H-imidazo[4,5-c]pyridin-5(4H)-yl)(oxazol-5-yl)methanone] | 500 to 1000
4 | C[C@@H]1CN(C(=O)c2cnco2)[C@H](c2cc3ccccc3cn2)c2nc[nH]c21 [Example 505, ((4R,7R)-4-(isoquinolin-3-yl)-7-methyl-6,7-dihydro-1H-imidazo[4,5-c]pyridin-5(4H)-yl)(oxazol-5-yl)methanone] | < 500
5 | C[C@H]1CN(C(=O)c2ocnc2C2CC2)[C@H](c2cc3ccccc3cn2)c2nc[nH]c21 [Example 506, (4-cyclopropyloxazol-5-yl)((4R,7S)-4-(isoquinolin-3-yl)-7-methyl-6,7-dihydro-1H-imidazo[4,5-c]pyridin-5(4H)-yl)methanone] | < 500
6 | C[C@H]1CN(C(=O)c2ocnc2C2CC2)[C@@H](c2cc3ccccc3cn2)c2nc[nH]c21 [Example 507, (4-cyclopropyloxazol-5-yl)((4S,7S)-4-(isoquinolin-3-yl)-7-methyl-6,7-dihydro-1H-imidazo[4,5-c]pyridin-5(4H)-yl)methanone] | 1000 to 5000
7 | C[C@H]1CN(C(=O)c2nnc(C3CC3)o2)[C@H](c2cc3ccccc3cn2)c2nc[nH]c21 [Example 511, (5-cyclopropyl-1,3,4-oxadiazol-2-yl)((4R,7S)-4-(isoquinolin-3-yl)-7-methyl-6,7-dihydro-1H-imidazo[4,5-c]pyridin-5(4H)-yl)methanone] | 500 to 1000
8 | C[C@@H]1CN(C(=O)c2nnc(C3CC3)o2)[C@H](c2cc3ccccc3cn2)c2nc[nH]c21 [Example 513, (5-cyclopropyl-1,3,4-oxadiazol-2-yl)((4R,7R)-4-(isoquinolin-3-yl)-7-methyl-6,7-dihydro-1H-imidazo[4,5-c]pyridin-5(4H)-yl)methanone] | 500 to 1000
9 | COc1ccc(-c2nnc(C(=O)N3C[C@H](C)c4[nH]cnc4[C@@H]3c3cc4ccccc4cn3)o2)nc1 [Example 515, ((4S,7S)-4-(isoquinolin-3-yl)-7-methyl-6,7-dihydro-1H-imidazo[4,5-c]pyridin-5(4H)-yl)(5-(5-methoxypyridin-2-yl)-1,3,4-oxadiazol-2-yl)methanone] | 1000 to 5000
10 | COc1ccc(-c2nnc(C(=O)N3C[C@H](C)c4[nH]cnc4[C@H]3c3cc4ccccc4cn3)o2)nc1 [Example 516, ((4R,7S)-4-(isoquinolin-3-yl)-7-methyl-6,7-dihydro-1H-imidazo[4,5-c]pyridin-5(4H)-yl)(5-(5-methoxypyridin-2-yl)-1,3,4-oxadiazol-2-yl)methanone] | 500 to 1000
11 | N#Cc1ncoc1C(=O)N1CCc2[nH]cnc2[C@H]1c1cc2ccccc2cn1 [Example 517, (R)-5-(4-(isoquinolin-3-yl)-4,5,6,7-tetrahydro-1H-imidazo[4,5-c]pyridine-5-carbonyl)oxazole-4-carbonitrile] | < 500
12 | Cn1ncnc1C(=O)N1CCc2[nH]cnc2[C@H]1c1cc2ccccc2cn1 [Example 518, [(4R)-4-(3-isoquinolyl)-1,4,6,7-tetrahydroimidazo[4,5-c]pyridin-5-yl]-(2-methyl-1,2,4-triazol-3-yl)methanone] | < 500
13 | (R)-(5-(1-methyl-1H-imidazol-4-yl)-1,3-oxadiazol-2- yl)(4-(quinazolin-2-yl)-6,7-dihydro-1H-imidazo[4,5- c]pyridin-5(4H)-yl)methanone [Example 198] | > 5000
